Measurements reported in patent US20250170248A1, “SMARCA DEGRADERS AND USES THEREOF” (Kymera Therapeutics, Inc., priority 2021, published 2025).

Columns and labels:
Type in all cases: cell-based
SMARCA2 [1] = biological target: T1, SMARCA2 (Homo sapiens, UniProt P51531); experiment: SMARCA2 Western blot degradation in MV4-11 cells; set-up: SMARCA2/SMARCA4 protein degradation selectivity in MV4-11 cells; endogenous in cells; host or cells: MV4-11; conditions: for Dmax: MV4-11, MV4-11 cells, read-out: SMARCA2 MSD MV411 degradation 24 h: average Dmax %; for Dmax / DC50 / SMARCA2 MSD MV411 degradation 24 h: average Dmax %: 24 h; for DC50 / Selectivity in MV411 / SMARCA2 MSD MV411 degradation 24 h: average Dmax %: MV4-11 cells; for DC50: read-out: SMARCA2 MSD MV411 degradation 24 h: Mean external-Abs DC50; for Selectivity in MV411: SMARCA2/4 selectivity
SMARCA2 [2] = biological target: T1, SMARCA2; experiment: MSD SMARCA2 degradation in A549 cell line; conditions: for Dmax: A549, A549 cells; for Dmax / DC50: 24 h; for DC50 / SMARCA2 MSD A549 degradation 24 h: Average Dmax %: A549 cells; for DC50: read-out: SMARCA2 MSD A549 degradation 24 h: Average external-Abs DC50
Description: Example 10. MSD SMARCA2 Degradation in A549 Cell Line
Cells were seeded into 96-well plates (A549 cells: 2×10^4 cells/well/100 ul media) and incubated overnight. The next day, 200 nL compound were added into the intermediate plate with Echo (Labcyte 550) from source plate containing a 3-fold serial dilution from top concentration of 1 mM. The culture medium was changed with 8 0ul of fresh medium and 80 μL of 2× compound solution was added into the well to make a final concentration of 1000 nM, 333.3 nM, 111.1 nM, 37.04 nM, 12.35 nM, 4.115 nM, 1.372 nM, 0.457 nM, 0.152 nM and 0 nM (DMSO). The wells were mixed and then incubated for 24 hours. The media was aspirated from the cultures and 60 ul pre-chilled PIPA lysis buffer (Boston BioProducts BP-115D) with protease/phosphatase inhibitor (Roche 05892791001/Roche 04906837001) was added into the well to lyze the cells for 20 minutes at 4° C. The MSD plate (L15XA) was coated with 40 uL cell lysate and incubated at 4° C. overnight. The next day, the plate was washed three times with TBST (CST #9997S), 150 ul/well. The MSD plates was blocked with 150 ul blocking buffer per well and shaked for 1 hr at RT, 600 rpm. The blocking buffer was 3% Blocker A (MSD, R93BA-4) in TBST. The MSD plate was washed three times with 150 uL/well of TBST and 25 ul/well of detection antibody (Rabbit anti-SMARCA2/BRM antibody, 100 μg/mL, ab223735) was added at final concentration of 1 μg/mL diluted in 1% Blocking buffer and shaken for 1 hour at RT, 600 rpm. The MSD plate was washed three times with 150 ul/well of TBST and 25 ul/well of SULFO-TAG anti-rabbit antibody (MSD, R32AB-1) was added at final concentration of 1 μg/ml diluted in 1% Blocking buffer and shaken for 1 hour at RT, 600 rpm. The MSD plate was washed three times with 150 uL/well of TBST and 150 ul/well of 2× MSD reading buffer diluted from 4× (MSD, R92TC-2) with water was added. Lastly, the MSD instrument was read.
The letter codes for SMARCA2 degradation potency (DC50) include: A (<10 nM), B (10-50 nM), C (>50-100 nM), and D (>100 nM). The letter codes for the percentage of SMARCA degradation after 24 hours (Dmax %) include: A (>90% degradation), B (>70-90% degradation), C (50-70% degradation), and D (<50% degradation).

SMARCA4 = biological target: T2, SMARCA4 (Homo sapiens, UniProt P51532); experiment: SMARCA4 Western blot degradation in MV4-11 cells; conditions: for Dmax: MV4-11, MV4-11 cells, read-out: SMARCA4 MSD MV411 degradation 24 h: average Dmax %; for Dmax / DC50: 24 h; for DC50 / SMARCA4 MSD MV411 degradation 24 h: average Dmax %: MV4-11 cells; for DC50: read-out: SMARCA4 MSD MV411 degradation 24 h: Mean external-Abs DC50
T2 construct: SMARCA2/SMARCA4 protein degradation selectivity in MV4-11 cells; endogenous in cells; host or cells: MV4-11
Outline: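 Fluorescent LI-COR imaging of Western blots quantified SMARCA2 and SMARCA4 protein remaining in MV4-11 cells after 24 h of compound treatment. β-actin was the loading control, and DC50, Dmax and SMARCA2/4 selectivity are given as letter-coded ranges.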

T2 sequence (P51532 whole entry): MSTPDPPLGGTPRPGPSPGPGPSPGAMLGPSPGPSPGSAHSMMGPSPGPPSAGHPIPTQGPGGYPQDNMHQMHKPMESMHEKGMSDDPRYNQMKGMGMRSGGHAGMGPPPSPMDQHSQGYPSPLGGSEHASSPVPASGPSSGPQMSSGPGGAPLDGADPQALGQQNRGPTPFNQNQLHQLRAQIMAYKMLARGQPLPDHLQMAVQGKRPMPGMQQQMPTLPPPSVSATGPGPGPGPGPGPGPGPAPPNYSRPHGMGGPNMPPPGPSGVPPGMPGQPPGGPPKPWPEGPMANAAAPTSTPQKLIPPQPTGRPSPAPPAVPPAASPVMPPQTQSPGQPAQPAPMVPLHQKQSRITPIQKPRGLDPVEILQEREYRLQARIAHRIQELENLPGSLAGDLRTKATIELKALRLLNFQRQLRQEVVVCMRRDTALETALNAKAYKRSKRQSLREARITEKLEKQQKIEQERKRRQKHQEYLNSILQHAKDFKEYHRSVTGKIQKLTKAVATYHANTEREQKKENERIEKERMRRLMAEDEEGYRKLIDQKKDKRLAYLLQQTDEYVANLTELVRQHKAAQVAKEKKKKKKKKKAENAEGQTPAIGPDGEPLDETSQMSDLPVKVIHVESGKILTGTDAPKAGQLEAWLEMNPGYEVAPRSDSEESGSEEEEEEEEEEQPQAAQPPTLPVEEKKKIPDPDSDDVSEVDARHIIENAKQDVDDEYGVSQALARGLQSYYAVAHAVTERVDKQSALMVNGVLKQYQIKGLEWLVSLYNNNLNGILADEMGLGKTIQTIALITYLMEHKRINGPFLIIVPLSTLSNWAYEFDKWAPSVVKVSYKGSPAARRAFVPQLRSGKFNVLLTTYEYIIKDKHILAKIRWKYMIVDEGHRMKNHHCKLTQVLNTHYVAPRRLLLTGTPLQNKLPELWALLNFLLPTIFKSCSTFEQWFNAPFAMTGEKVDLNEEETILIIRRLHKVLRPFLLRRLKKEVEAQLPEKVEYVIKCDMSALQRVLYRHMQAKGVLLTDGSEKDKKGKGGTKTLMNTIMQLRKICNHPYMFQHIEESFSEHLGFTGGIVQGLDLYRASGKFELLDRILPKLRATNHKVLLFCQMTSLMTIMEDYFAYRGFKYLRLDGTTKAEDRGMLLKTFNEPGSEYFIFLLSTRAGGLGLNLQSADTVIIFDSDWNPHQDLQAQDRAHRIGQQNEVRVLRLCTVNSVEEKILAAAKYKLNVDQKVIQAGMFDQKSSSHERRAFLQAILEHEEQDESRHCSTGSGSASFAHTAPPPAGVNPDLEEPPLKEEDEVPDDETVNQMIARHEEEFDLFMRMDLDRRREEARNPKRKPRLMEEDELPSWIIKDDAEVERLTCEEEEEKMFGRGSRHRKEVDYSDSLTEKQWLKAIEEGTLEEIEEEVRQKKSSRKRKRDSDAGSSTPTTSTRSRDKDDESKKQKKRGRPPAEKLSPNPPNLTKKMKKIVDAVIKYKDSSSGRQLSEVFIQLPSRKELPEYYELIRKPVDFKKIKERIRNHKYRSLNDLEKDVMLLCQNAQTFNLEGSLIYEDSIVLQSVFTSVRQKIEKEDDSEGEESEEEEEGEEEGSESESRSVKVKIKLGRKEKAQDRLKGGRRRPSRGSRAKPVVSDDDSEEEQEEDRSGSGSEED
T1 sequence (P51531 whole entry): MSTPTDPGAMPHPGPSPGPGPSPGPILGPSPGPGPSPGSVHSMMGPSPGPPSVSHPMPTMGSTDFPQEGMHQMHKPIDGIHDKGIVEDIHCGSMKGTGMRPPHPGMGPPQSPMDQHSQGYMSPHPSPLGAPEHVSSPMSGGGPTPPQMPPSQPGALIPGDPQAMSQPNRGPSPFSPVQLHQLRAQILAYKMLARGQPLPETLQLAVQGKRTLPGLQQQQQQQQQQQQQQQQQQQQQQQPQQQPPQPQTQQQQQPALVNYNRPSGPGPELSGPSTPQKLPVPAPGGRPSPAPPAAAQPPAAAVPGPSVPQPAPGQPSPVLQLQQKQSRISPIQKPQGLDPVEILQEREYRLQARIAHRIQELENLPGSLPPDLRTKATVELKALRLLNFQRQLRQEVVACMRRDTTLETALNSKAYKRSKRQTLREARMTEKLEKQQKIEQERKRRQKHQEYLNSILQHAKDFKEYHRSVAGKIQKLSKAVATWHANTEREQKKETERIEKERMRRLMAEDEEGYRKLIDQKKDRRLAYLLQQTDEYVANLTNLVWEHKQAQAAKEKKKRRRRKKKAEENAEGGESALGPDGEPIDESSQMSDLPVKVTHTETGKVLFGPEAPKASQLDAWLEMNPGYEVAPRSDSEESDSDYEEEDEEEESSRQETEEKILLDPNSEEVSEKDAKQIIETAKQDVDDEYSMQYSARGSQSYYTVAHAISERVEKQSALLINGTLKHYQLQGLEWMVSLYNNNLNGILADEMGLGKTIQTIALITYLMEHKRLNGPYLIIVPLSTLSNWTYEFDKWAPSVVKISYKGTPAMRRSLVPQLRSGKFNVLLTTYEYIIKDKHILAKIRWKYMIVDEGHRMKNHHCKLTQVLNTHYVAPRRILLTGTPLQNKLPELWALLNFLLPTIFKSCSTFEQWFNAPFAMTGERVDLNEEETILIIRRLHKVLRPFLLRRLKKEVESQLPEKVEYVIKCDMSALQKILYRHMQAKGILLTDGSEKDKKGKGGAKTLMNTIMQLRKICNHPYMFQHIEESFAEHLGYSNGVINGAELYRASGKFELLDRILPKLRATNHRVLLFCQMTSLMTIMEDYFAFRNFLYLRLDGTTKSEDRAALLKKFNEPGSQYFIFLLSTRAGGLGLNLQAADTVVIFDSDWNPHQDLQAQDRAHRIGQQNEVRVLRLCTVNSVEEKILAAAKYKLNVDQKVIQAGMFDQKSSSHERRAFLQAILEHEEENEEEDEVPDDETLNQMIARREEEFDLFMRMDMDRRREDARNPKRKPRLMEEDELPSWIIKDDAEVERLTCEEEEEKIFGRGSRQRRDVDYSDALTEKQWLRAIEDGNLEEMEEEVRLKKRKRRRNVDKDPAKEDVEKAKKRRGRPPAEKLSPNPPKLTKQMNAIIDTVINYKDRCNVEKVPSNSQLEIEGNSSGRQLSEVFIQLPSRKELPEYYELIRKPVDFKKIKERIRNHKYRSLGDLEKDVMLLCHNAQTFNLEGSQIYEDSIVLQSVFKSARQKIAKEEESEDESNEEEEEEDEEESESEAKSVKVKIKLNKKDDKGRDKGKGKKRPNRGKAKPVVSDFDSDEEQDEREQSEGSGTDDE

C#Cc1ccc(CNC(=O)[C@@H]2C[C@@H](O)CN2C(=O)[C@@H](NC(=O)N2CC3(CC(N4CC(N5CCC(c6cnc(N7CCc8[nH]c9nnc(-c%10ccccc%10O)cc9c8[C@H]7C)nc6)CC5)C4)C3)C2)C(C)(C)C)cc1 [I-268]
Dmax (SMARCA2 [1]): 70 to 90% | DC50 (SMARCA2 [1]): 10 to 100 nM | Selectivity in MV411 (SMARCA2 [1]): C (C (10-100 fold)) | Dmax (SMARCA2 [2]): > 90% | DC50 (SMARCA2 [2]): > 100 nM | Dmax (SMARCA4): 50 to 70% | DC50 (SMARCA4): > 100 nM

C#Cc1cnc(CNC(=O)[C@@H]2C[C@@H](O)CN2C(=O)[C@@H](NC(=O)[C@H]2CC3(C2)C[C@H](N2CCC(N4CCC(N5CCN6c7cc(-c8ccccc8O)nnc7NC[C@H]6C5)CC4)CC2)C3)C(C)(C)C)c(OC)c1 (single isomer, unassigned) [I-330]
Dmax (SMARCA2 [1]): 50 to 70% | DC50 (SMARCA2 [1]): > 100 nM | Selectivity in MV411 (SMARCA2 [1]): C (C (10-100 fold)) | Dmax (SMARCA2 [2]): 50 to 70% | DC50 (SMARCA2 [2]): > 100 nM | Dmax (SMARCA4): < 50% | DC50 (SMARCA4): > 100 nM

C#Cc1ccc(CNC(=O)[C@@H]2C[C@@H](O)CN2C(=O)[C@@H](OC(=O)N2CC3(CC(N4CCC(c5cnc(N6CCc7[nH]c8nnc(-c9ccccc9O)cc8c7[C@H]6C)nc5)CC4)C3)C2)C(C)(C)C)cc1 [I-138]
Dmax (SMARCA2 [1]): > 90% | DC50 (SMARCA2 [1]): 1 to 10 nM | Selectivity in MV411 (SMARCA2 [1]): C (C (10-100 fold)) | Dmax (SMARCA2 [2]): > 90% | DC50 (SMARCA2 [2]): < 10 nM | Dmax (SMARCA4): > 90% | DC50 (SMARCA4): 10 to 100 nM

C#Cc1ccc(CNC(=O)[C@@H]2C[C@@H](O)CN2C(=O)[C@@H](NC(=O)[C@H]2CCC3(CC2)C[C@H](N2CCN(c4cnc(N5CCN6c7cc(-c8ccccc8O)nnc7NC[C@H]6C5)nc4)CC2)C3)C(C)(C)C)cc1 (single isomer, unassigned) [I-170]
SMARCA2 MSD MV411 degradation 24 h: average Dmax % (SMARCA2 [1]): B (B (>70-90% degradation)) | DC50 (SMARCA2 [1]): 1 to 10 nM | Selectivity in MV411 (SMARCA2 [1]): C (C (10-100 fold)) | SMARCA2 MSD A549 degradation 24 h: Average Dmax % (SMARCA2 [2]): A (A (>90% degradation)) | DC50 (SMARCA2 [2]): 10 to 50 nM | SMARCA4 MSD MV411 degradation 24 h: average Dmax % (SMARCA4): C (C (50-70% degradation)) | DC50 (SMARCA4): > 100 nM

C#Cc1ccc([C@H](C)NC(=O)[C@@H]2C[C@@H](O)CN2C(=O)[C@@H](NC(=O)N2CC3(CC(N4CCC(c5cnc(N6CCc7[nH]c8nnc(-c9ccccc9O)cc8c7[C@H]6C)cn5)CC4)C3)C2)C(C)(C)C)cc1 [I-250]
Dmax (SMARCA2 [1]): > 90% | DC50 (SMARCA2 [1]): 10 to 100 nM | Selectivity in MV411 (SMARCA2 [1]): C (C (10-100 fold)) | Dmax (SMARCA2 [2]): > 90% | DC50 (SMARCA2 [2]): 10 to 50 nM | Dmax (SMARCA4): 70 to 90% | DC50 (SMARCA4): > 100 nM

C#Cc1ccc(CNC(=O)[C@@H]2C[C@@H](O)CN2C(=O)[C@@H](NC(=O)[C@H]2CCC3(CC2)C[C@H](N2CCC(N4CCC(N5CCN6c7cc(-c8ccccc8O)nnc7NC[C@H]6C5)CC4)CC2)C3)C(C)(C)C)cc1 (single isomer, unassigned) [I-174]
Dmax (SMARCA2 [1]): 70 to 90% | DC50 (SMARCA2 [1]): 10 to 100 nM | Selectivity in MV411 (SMARCA2 [1]): B (B (>100-500 fold)) | Dmax (SMARCA2 [2]): > 90% | DC50 (SMARCA2 [2]): > 100 nM | Dmax (SMARCA4): < 50% | DC50 (SMARCA4): > 100 nM

Cc1ncsc1-c1ccc(CNC(=O)[C@@H]2C[C@@H](O)CN2C(=O)C(c2cc(OCCN3CCC(N4CCC(c5cnc(N6CCc7[nH]c8nnc(-c9ccccc9O)cc8c7[C@H]6C)nc5)CC4)CC3)no2)C(C)C)cc1 (stereo partly shown) [I-36]
Dmax (SMARCA2 [1]): > 90% | DC50 (SMARCA2 [1]): 1 to 10 nM | Selectivity in MV411 (SMARCA2 [1]): D (D (<10 fold)) | Dmax (SMARCA2 [2]): > 90% | DC50 (SMARCA2 [2]): 10 to 50 nM | Dmax (SMARCA4): > 90% | DC50 (SMARCA4): 1 to 10 nM

C#Cc1ccc(CNC(=O)[C@@H]2C[C@@H](O)CN2C(=O)[C@@H](NC(=O)N2CCN(Cc3ccc(-c4cnc(N5CCN6c7cc(-c8ccccc8O)nnc7NC[C@H]6C5)nc4)cc3)CC2)C(C)(C)C)cc1 [I-269]
Dmax (SMARCA2 [1]): 70 to 90% | DC50 (SMARCA2 [1]): 10 to 100 nM | Selectivity in MV411 (SMARCA2 [1]): C (C (10-100 fold)) | Dmax (SMARCA2 [2]): > 90% | DC50 (SMARCA2 [2]): 10 to 50 nM | Dmax (SMARCA4): 50 to 70% | DC50 (SMARCA4): > 100 nM

C#Cc1ccc(CNC(=O)[C@@H]2C[C@@H](O)CN2C(=O)[C@@H](NC(=O)[C@H]2CCC3(CC2)C[C@H](N2CCC(N4CC5(CC(N6CCN7c8cc(-c9ccccc9O)nnc8NC[C@H]7C6)C5)C4)CC2)C3)C(C)(C)C)c(Cl)c1 (single isomer, unassigned) [I-238]
SMARCA2 MSD MV411 degradation 24 h: average Dmax % (SMARCA2 [1]): B (B (>70-90% degradation)) | DC50 (SMARCA2 [1]): 10 to 100 nM | Selectivity in MV411 (SMARCA2 [1]): C (C (10-100 fold)) | SMARCA2 MSD A549 degradation 24 h: Average Dmax % (SMARCA2 [2]): A (A (>90% degradation)) | DC50 (SMARCA2 [2]): > 100 nM | SMARCA4 MSD MV411 degradation 24 h: average Dmax % (SMARCA4): D (D (<50% degradation)) | DC50 (SMARCA4): > 100 nM

C#Cc1ccc(CNC(=O)[C@@H]2C[C@@H](O)CN2C(=O)[C@@H](NC(=O)CCCCCN2CCC(N3CC4(CC(N5CCN6c7cc(-c8ccccc8O)nnc7NC[C@H]6C5)C4)C3)CC2)C(C)(C)C)cc1 [I-251]
Dmax (SMARCA2 [1]): 70 to 90% | DC50 (SMARCA2 [1]): 10 to 100 nM | Selectivity in MV411 (SMARCA2 [1]): B (B (>100-500 fold)) | Dmax (SMARCA2 [2]): > 90% | DC50 (SMARCA2 [2]): > 100 nM | Dmax (SMARCA4): < 50% | DC50 (SMARCA4): > 100 nM

C#Cc1ccc(CNC(=O)[C@@H]2C[C@@H](O)CN2C(=O)[C@@H](NC(=O)[C@H]2CC3(C2)C[C@H](N2CCC(N4CCC(N5CCN6c7cc(-c8ccccc8O)nnc7NC[C@H]6C5)CC4)CC2)C3)C(C)(C)C)c(OC)c1 (single isomer, unassigned) [I-231]
Dmax (SMARCA2 [1]): > 90% | DC50 (SMARCA2 [1]): 1 to 10 nM | Selectivity in MV411 (SMARCA2 [1]): C (C (10-100 fold)) | Dmax (SMARCA2 [2]): > 90% | DC50 (SMARCA2 [2]): 50 to 100 nM | Dmax (SMARCA4): 50 to 70% | DC50 (SMARCA4): > 100 nM

C#Cc1ccc(CNC(=O)[C@@H]2C[C@@H](O)CN2C(=O)[C@@H](NC(=O)[C@H]2CCC3(CC2)C[C@H](N2CCN(c4cnc(N5CCN6c7cc(-c8ccccc8O)nnc7NC[C@H]6C5)nc4)CC2)C3)C(C)(C)CCO)c(Cl)c1 (single isomer, unassigned) [I-311]
Dmax (SMARCA2 [1]): 70 to 90% | DC50 (SMARCA2 [1]): 1 to 10 nM | Selectivity in MV411 (SMARCA2 [1]): C (C (10-100 fold)) | Dmax (SMARCA2 [2]): > 90% | DC50 (SMARCA2 [2]): 10 to 50 nM | Dmax (SMARCA4): 70 to 90% | DC50 (SMARCA4): > 100 nM

C#Cc1ccc(CNC(=O)[C@@H]2C[C@@H](O)CN2C(=O)[C@@H](NC(=O)N2CC3(CC(N4CCC(c5cnc(N6CCc7[nH]c8nnc(-c9ccccc9O)cc8c7[C@H]6C)nc5)CC4)C3)C2)C(C)(C)C)c(O)c1 [I-166]
Dmax (SMARCA2 [1]): > 90% | DC50 (SMARCA2 [1]): 1 to 10 nM | Selectivity in MV411 (SMARCA2 [1]): C (C (10-100 fold)) | Dmax (SMARCA2 [2]): > 90% | DC50 (SMARCA2 [2]): < 10 nM | Dmax (SMARCA4): > 90% | DC50 (SMARCA4): 10 to 100 nM
